Marks after values point to notes of the source that are not given here.

Assay [1] concerns rats with heart failure (left coronary artery ligature). In words: Heart failure induced in rats by ligature of the left coronary artery; compound A, perindopril or both for 12 weeks. The class given is in vivo, rat. The note with it: HF rats; for LVEDPVR: compliance of LV; for LVEDPVR / LVEDP / LVESP / LVESPVR / cardiac output / dP/dtmax / dP/dtmin / shortening fraction (% of the diameter of the LV) / Heart rate / tau: compound A 3 mg/kg, perindopril 0.4 mg/kg; for LVEDPVR / LVEDP / LVESP / LVESPVR / cardiac output / dP/dtmax / dP/dtmin / shortening fraction (% of the diameter of the LV) / tau: 12 weeks; for tau: relaxation time. The protocol: (§1) Heart failure was induced in rats by ligature of the left coronary artery (the control animals undergo an operation but are not ligated), which causes ischaemia of part of the wall of the left ventricle. The animals recuperate for 7 days and then, for 12 weeks, they are given either 3 mg/kg of compound A, or 0.4 mg/kg of perindopril, or perindopril and compound A concomitantly.

Assay [2] shares this test system. Nature of the assay: Same rat heart failure model; ivabradine, perindopril or their association. The note with it: HF rats. The class given is in vivo. On the procedure: as §1
This effect on systolic function and diastolic function was then studied using the association of perindopril and a different If current inhibitor, ivabradine.

Where [3] appears, read: Table 4B, ivabradine on its own.

`COc1cc2c(cc1OC)CCN(C(=O)CCN(C)C[C@H]1Cc3cc(OC)c(OC)cc31)CC2` [compound A, N-{[(7S)-3,4-dimethoxybicyclo[4.2.0]octa-1,3,5-trien-7-yl]methyl}-3-(7,8-dimethoxy-1,2,4,5-tetrahydro-3H-3-benzazepin-3-yl)-N-methyl-3-oxo-1-propanamine]: in assay [1], the “effect on compliance of the left ventricle, measured by LVEDPVR (in words)” value is recorded as “very clearly improved”; the “effect on end diastolic pressure and relaxation time (in words)” value is “clearly improved”; the “effect on systolic function, seen from the LVESPVR (in words)” value was “improves systolic function”; the LVEDPVR is on record as 2.70^† mmHg/RVU. For the same compound, in assay [1], the LVEDP is 4.89^† mmHg, the LVESP stood at 118 mmHg, the LVESPVR is listed as 16.1^† mmHg/RVU and the cardiac output was determined as 127 mL/min. In assay [1], the dP/dtmax is 6.78 10^3 mmHg/s, the dP/dtmin is listed as 5.87 −10^3 mmHg/s, the “shortening fraction (% of the diameter of the LV)” value is 18.0 % of the diameter of the LV and the tau is recorded as 8.37^† ms. The same compound returned a Heart rate in assay [1] (duration of treatment 4 weeks) of 349.3 bpm. The Heart rate in assay [1] (duration of treatment 12 weeks) is 342.7^† bpm. Also, the “effect on heart rate (in words)” value in assay [1] (vs untreated HF) is “significant reduction in heart rate”.
In the case of `COc1cc2c(cc1OC)CC(=O)N(CCCN(C)C[C@H]1Cc3cc(OC)c(OC)cc31)CC2` [ivabradine, 3-{3-[{[(7S)-3,4-dimethoxybicyclo[4.2.0]octa-1,3,5-trien-7-yl]-methyl}(methyl)amino]propyl}-7,8-dimethoxy-1,3,4,5-tetrahydro-2H-3-benzazepin-2-one], the “effect on diastolic dysfunction (in words)” value in assay [2] is “comparable to that of perindopril on its own”. Besides, in assay [2] (setting [3]), the LVEDPVR was 1.87*^† mmHg/RVU and the LVESPVR is 20.63*^† mmHg/RVU.
`CCC[C@H](N[C@@H](C)C(=O)N1[C@H](C(=O)O)C[C@@H]2CCCC[C@@H]21)C(=O)OCC` [perindopril]: in assay [1], the “effect on compliance of the left ventricle, measured by LVEDPVR (in words)” value was “very clearly improved”; the “effect on end diastolic pressure and relaxation time (in words)” value is given as “clearly improved”; the “effect on systolic function, seen from the LVESPVR (in words)” value is given as “improves systolic function”; the LVEDPVR was 2.36^† mmHg/RVU. Also, in assay [1], the LVEDP is on record as 5.17^† mmHg, the LVESP was 99 mmHg, the LVESPVR is 16.4^† mmHg/RVU and the cardiac output was 142^† mL/min. In assay [1], the dP/dtmax is reported as 5.97 10^3 mmHg/s, the dP/dtmin is 5.11 −10^3 mmHg/s, the “shortening fraction (% of the diameter of the LV)” value is 17.1 % of the diameter of the LV and the tau was 7.31^† ms. For the same compound, in assay [1] (duration of treatment 4 weeks), the Heart rate is listed as 388.2 bpm. In assay [1] (duration of treatment 12 weeks), the Heart rate was 387.7 bpm. Also, the “effect on systolic function (in words)” value in assay [2] is “improves the systolic function”. For the same compound, in assay [2] (Table 4a), the LVEDP is given as 6.88^† mmHg, the LVEDPVR is given as 2.25^† mmHg/RVU, the LVESP is 102^† mmHg and the LVESPVR is 14.5^† mmHg/RVU. For the same compound, in assay [2] (Table 4a), the dP/dtmax is listed as 6.08^† 10^3 mmHg/s, the dP/dtmin was 4.99 −10^3 mmHg/s and the tau is on record as 10.92^† ms.

For the origin of these results see patent publication US20110306598A1, “Use of the association of a sinus node if current inhibitor and an angiotensin-converting enzyme inhibitor in the treatment of heart failure” (LES LABORATOIRES SERVIER, priority 2010, published 2011).
